Laboratory results taken from patent US20100076013A1, “Methods of Treatment” (Novartis AG, priority 2006, published 2010).

Assays:
[1] = system: CCRF-HSB-2; assay: CellTiter-Glo cell viability assay; assay type: cell-based; settings: Homo sapiens; CCRF-HSB-2, T-ALL; 72 hours
Protocol: (§1) The EC50s were determined using CellTiter-Glo (Promega), a bioluminescent, cell viability assay measuring ATP levels in viable cells. Cells were plated in assay plates and incubated with a range of compound concentrations for 72 hours. Cells were lysed and ATP levels were determined using CellTiter-Glo reagent on a luminometer according to manufacturer's instructions. EC50 refers to the concentration of compound that inhibited 50% of cell growth.

[2] = system: LAMA-84; assay: CellTiter-Glo cell viability assay; assay type: cell-based; settings: Homo sapiens; LAMA-84, CML; 72 hours
Protocol: as §1

[3] = system: D1.1; assay: CellTiter-Glo cell viability assay; assay type: cell-based; settings: D1.1, T-ALL; 72 hours
Protocol: as §1

[4] = system: NB-4; assay: CellTiter-Glo cell viability assay; assay type: cell-based; settings: Homo sapiens; NB-4, AML; 72 hours
Protocol: as §1

[5] = system: KU812; assay: CellTiter-Glo cell viability assay; assay type: cell-based; settings: Homo sapiens; KU812, CML; 72 hours
Protocol: as §1

[6] = system: CCRF-CEM; assay: CellTiter-Glo cell viability assay; assay type: cell-based; settings: Homo sapiens, T-ALL, 72 hours
Protocol: as §1

[7] = system: EM-3; assay: CellTiter-Glo cell viability assay; assay type: cell-based; settings: EM-3, CML; 72 hours
Protocol: as §1

[8] = system: Reh; assay: CellTiter-Glo cell viability assay; assay type: cell-based; settings: Homo sapiens, B-ALL, 72 hours
Protocol: as §1

[9] = system: KE-37; assay: CellTiter-Glo cell viability assay; assay type: cell-based; settings: Homo sapiens; KE-37, T-ALL; 72 hours
Protocol: as §1

[10] = system: EM-2; assay: CellTiter-Glo cell viability assay; assay type: cell-based; settings: Homo sapiens; EM-2, CML; 72 hours
Protocol: as §1

[11] = system: RL; assay: CellTiter-Glo cell viability assay; assay type: cell-based; settings: Homo sapiens, B-NHL, 72 hours
Protocol: as §1

[12] = system: L-428; assay: CellTiter-Glo cell viability assay; assay type: cell-based; settings: Homo sapiens; L-428, HL; 72 hours
Protocol: as §1

[13] = system: MOLT-3; assay: CellTiter-Glo cell viability assay; assay type: cell-based; settings: Homo sapiens; MOLT-3, T-ALL; 72 hours
Protocol: as §1

[14] = system: JURL-MK2; assay: CellTiter-Glo cell viability assay; assay type: cell-based; settings: JURL-MK2, CML; 72 hours
Protocol: as §1

[15] = system: CEM/C2; assay: CellTiter-Glo cell viability assay; assay type: cell-based; settings: Homo sapiens; CEM/C2, T-ALL; 72 hours
Protocol: as §1

[16] = system: CEM/C1; assay: CellTiter-Glo cell viability assay; assay type: cell-based; settings: CEM/C1, T-ALL; 72 hours
Protocol: as §1

[17] = system: SR; assay: CellTiter-Glo cell viability assay; assay type: cell-based; settings: Homo sapiens, LCIL, 72 hours
Protocol: as §1

[18] = system: NOMO-1; assay: CellTiter-Glo cell viability assay; assay type: cell-based; settings: Homo sapiens; NOMO-1, AML; 72 hours
Protocol: as §1

[19] = system: JURL-MK1; assay: CellTiter-Glo cell viability assay; assay type: cell-based; settings: JURL-MK1, CML; 72 hours
Protocol: as §1

[20] = system: PL-21; assay: CellTiter-Glo cell viability assay; assay type: cell-based; settings: PL-21, AML; 72 hours
Protocol: as §1

[21] = system: EOL-1; assay: CellTiter-Glo cell viability assay; assay type: cell-based; settings: Homo sapiens, EOL1; EOL-1, AML; 72 hours
Protocol: as §1

[22] = system: HSB-2; assay: CellTiter-Glo cell viability assay; assay type: cell-based; settings: HSB2; HSB-2, T-ALL; 72 hours
Protocol: as §1

[23] = system: ML-2; assay: CellTiter-Glo cell viability assay; assay type: cell-based; settings: Homo sapiens; ML-2, AML; 72 hours
Protocol: as §1

[24] = system: OCI-AML3; assay: CellTiter-Glo cell viability assay; assay type: cell-based; settings: Homo sapiens, OCI-AML-3, 72 hours
Protocol: as §1

[25] = system: Karpas-299; assay: CellTiter-Glo cell viability assay; assay type: cell-based; settings: Homo sapiens; Karpas-299, ALCL; 72 hours
Protocol: as §1

[26] = system: JK-1; assay: CellTiter-Glo cell viability assay; assay type: cell-based; settings: JK-1, CML; 72 hours
Protocol: as §1

[27] = system: NALM-1; assay: CellTiter-Glo cell viability assay; assay type: cell-based; settings: NALM-1, CML; 72 hours
Protocol: as §1

[28] = system: Kasumi-1; assay: CellTiter-Glo cell viability assay; assay type: cell-based; settings: Homo sapiens; Kasumi-1, AML; 72 hours
Protocol: as §1

[29] = system: KARPAS-45; assay: CellTiter-Glo cell viability assay; assay type: cell-based; settings: KARPAS-45, T-ALL; 72 hours
Protocol: as §1

[30] = system: MV-4-11; assay: CellTiter-Glo cell viability assay; assay type: cell-based; settings: Homo sapiens, MV4-11; MV-4-11, AML; 72 hours
Protocol: (§2) See Kelly et al. (2002). […] See Cools et al. (2004).
as §1

[31] = system: G697R-Ba/F3; assay: Induction of apoptosis (Annexin-V staining) and caspase activity; assay type: cell-based, murine; settings: 1 μM, following 2 days and 3 days, respectively
Source text: as §2
(§3) See Weisberg et al. (2002).

[32] = system: D835Y-Ba/F3 cells; assay: Trypan blue exclusion proliferation assay; assay type: cell-based, murine; settings: PKC412-sensitive line D835Y-Ba/F3; three-day treatment, FIG. 3
Source text: as §2, §3

[33] = system: G697R-Ba/F3; assay: Trypan blue exclusion proliferation assay; assay type: cell-based, murine; settings: PKC412-resistant line G697R-Ba/F3; FIGS. 1-2
Source text: as §2, §3

[34] = system: FLT3-ITD-Ba/F3 cells expressing firefly luciferase; assay: Mouse model of acute leukemia, tumor burden by bioluminescence imaging; assay type: in vivo, NCr nude mice; settings: for Student t-test p of bioluminescence (tumor burden), vehicle versus compound alone: 50 mg/kg oral gavage, NCr nude mice
Protocol: FIG. 4 illustrates NCR nude mice injected with 800,000 Ba/F3-FLT3-ITD-luc+ cells via IV tail vein, and then treated for up to 10 days by oral gavage with vehicle (NMP+PEG300), LBW242 (50 mg/kg).

[35] = system: FLT3-ITD-Ba/F3; settings: 1 μM, following 2 days and 3 days, respectively
Protocol: The IL-3-dependent murine hematopoietic cell line Ba/F3 are transduced with either FLT3-ITD or FLT3-D835Y-containing MSCV retroviruses harboring a neomycin selectable marker, and selected for resistance to neomycin. See Kelly et al. (2002). FLT3-ITD transduced cells are selected for growth in G418 (1 mg/mL). PKC412-resistant Ba/F3 cell lines, which express FLT3-ITD harboring a mutation in the ATP-binding pocket (F691L, A627T, G697R, N676D), are developed as described previously. See Cools et al. (2004). The human AML-derived, FLT3-ITD-expressing cell line, MV4; 11 [see Quentmeier et al. (2003)], is provided by Dr. Scott Armstrong, Dana Farber Cancer Institute, Boston, Mass. The human AML-derived, FLT3-ITD-expressing cell line, MOLM-13, is modified to express luciferase and provided as MOLM13-luc+ by Dr. Andrew Kung, Dana Farber Cancer Institute, Boston, Mass. All cell lines are cultured with 5% CO2 at 37° C., at a concentration of 2×10^5 to 5×10^5 in RPMI (Mediatech, Inc., Herndon, Va.) with 10% fetal calf serum and supplemented with 1% glutamine. […]
The trypan blue exclusion assay has been previously described [see Weisberg et al. (2002)], and is used to determine proliferation of cells cultured in the presence and absence of LBW242. […] Apoptosis of drug-treated cells is measured using the Annexin-V-Fluos Staining Kit (Boehringer Mannheim, Indianapolis, Ind.), as previously described. […]

[36] = system: Mutant FLT3-expressing cells
Protocol: (§4) The IL-3-dependent murine hematopoietic cell line Ba/F3 are transduced with either FLT3-ITD or FLT3-D835Y-containing MSCV retroviruses harboring a neomycin selectable marker, and selected for resistance to neomycin. See Kelly et al. (2002). FLT3-ITD transduced cells are selected for growth in G418 (1 mg/mL). PKC412-resistant Ba/F3 cell lines, which express FLT3-ITD harboring a mutation in the ATP-binding pocket (F691L, A627T, G697R, N676D), are developed as described previously. See Cools et al. (2004). The human AML-derived, FLT3-ITD-expressing cell line, MV4; 11 [see Quentmeier et al. (2003)], is provided by Dr. Scott Armstrong, Dana Farber Cancer Institute, Boston, Mass. The human AML-derived, FLT3-ITD-expressing cell line, MOLM-13, is modified to express luciferase and provided as MOLM13-luc+ by Dr. Andrew Kung, Dana Farber Cancer Institute, Boston, Mass. All cell lines are cultured with 5% CO2 at 37° C., at a concentration of 2×10^5 to 5×10^5 in RPMI (Mediatech, Inc., Herndon, Va.) with 10% fetal calf serum and supplemented with 1% glutamine. Parental Ba/F3 cells expressing wild-type FLT3 are similarly cultured with 15% WEHI-conditioned medium as a source of IL-3. All transfected cell lines are cultured in media supplemented with 1 mg/mL G418.

[37] = system: wild-type FLT3-expressing Ba/F3 cells; settings: FIG. 3
Protocol: as §4
(§5) N-[1-cyclohexyl-2-oxo-2-(6-phenethyl-octahydro-pyrrolo[2,3-c]pyridin-1-yl-ethyl]-2-methylamino-propionamide is synthesized by Novartis Pharma AG, Basel, Switzerland, and dissolved in DMSO to make 10 mM stock solutions. Serial dilutions are then made, also in DMSO, to obtain final dilutions for cellular assays.
(§6) The trypan blue exclusion assay has been previously described [see Weisberg et al. (2002)], and is used to determine proliferation of cells cultured in the presence and absence of LBW242. Cell viability is reported as percentage of control (untreated) cells. Error bars represent the standard error of the mean for each data point. Apoptosis of drug-treated cells is measured using the Annexin-V-Fluos Staining Kit (Boehringer Mannheim, Indianapolis, Ind.), as previously described. See Weisberg et al. (2002).

[38] = system: FLT3-ITD-Ba/F3; settings: PKC412-sensitive line FLT3-ITD-Ba/F3; FIGS. 1-2
Protocol: as §4, §5, §6

[39] = system: PKC412-sensitive and resistant mutant FLT3-expressing cells
Protocol: as §6

[40] = system: mutant FLT3-expressing cells; settings: annexin-pi staining and caspase assays; effective concentrations in the micromolar range
Protocol: as §6

CN[C@@H](C)C(=O)N[C@H](C(=O)N1CCC[C@H]1c1nc(C(=O)c2ccc(F)cc2)cs1)C1CCCCC1 [(S)—N—((S)-1-Cyclohexyl-2-{(S)-2-[4-(4-fluoro-benzoyl)-thiazol-2-yl]-pyrrolidin-1-yl}-2-oxo-ethyl)-2-methylamino-propionamide]
EC50 [1]: 6.3 µM
EC50 [2]: 0.203 µM
EC50 [3]: 7.35 µM
EC50 [4]: 0.0146 µM
EC50 [5]: 1.94 µM
EC50 [6]: 0.676 µM
EC50 [7]: 13.8 µM
EC50 [8]: 0.0791 µM
EC50 [9]: 5.1 µM
EC50 [10]: 0.696 µM
EC50 [11]: 9.68 µM
EC50 [12]: 7.3 µM
EC50 [13]: 10.2 µM
EC50 [14]: 12.7 µM
EC50 [15]: 3.83 µM
EC50 [16]: 4.6 µM
EC50 [17]: 11.6 µM
EC50 [18]: 4.08 µM
EC50 [19]: 11.8 µM
EC50 [20]: 3.55 µM
EC50 [21]: 1.66 µM
EC50 [22]: 0.4 µM
EC50 [23]: 0.015 µM
EC50 [24]: 4.08 µM
EC50 [25]: 10.8 µM
EC50 [26]: 3.49 µM
EC50 [27]: 3.54 µM
EC50 [28]: 8.64 µM
EC50 [29]: 10.5 µM
EC50 [30]: 14 µM

CNC(C)C(=O)NC(C(=O)N1CCC2CCN(CCc3ccccc3)CC21)C1CCCCC1 (centres unmarked) [N-[1-cyclohexyl-2-oxo-2-(6-phenethyl-octahydro-pyrrolo[2,3-c]pyridin-1-yl-ethyl]-2-methylamino-propionamide]
induction of apoptosis and caspase activity [31]: found
doses at which activity is displayed against the cells in culture [32]: ≥ 1 µM
doses at which activity is displayed against the cells in culture [33]: ≥ 1 µM
Student t-test p of bioluminescence (tumor burden), vehicle versus compound alone ([34]; day 5 post-IV injection): ≤ 0.0773
Student t-test p of bioluminescence (tumor burden), vehicle versus compound alone ([34]; day 7 post-IV injection): ≤ 0.05625
tolerability of doses effective against mutant FLT3 ([34]; in vivo): well-tolerated
induction of apoptosis and caspase activity [35]: found
rescue of treated cells from cytotoxic effects by WEHI (source of IL-3) [36]: did not rescue
concentrations that led to death of the cells [37]: > 1 µM
inhibitory effects on cell growth ([37]; concentrations ≦1 μM): no inhibitory effects
doses at which activity is displayed against the cells in culture [38]: ≥ 1 µM
inhibition of cells in vitro [39]: inhibits
induction of apoptosis [40]: modestly observed

CO[C@@H]1[C@H](N(C)C(=O)c2ccccc2)C[C@H]2O[C@]1(C)n1c3ccccc3c3c4c(c5c6ccccc6n2c5c31)C(=O)NC4 [PKC412, reference compound]
rescue of treated cells from cytotoxic effects by WEHI (source of IL-3) [36]: fully rescued
